Experimental data as given in US8722849B2, “Polypeptides” (Novo Nordisk A/S, priority 2011, dated 2014).
Values after ≈ are worked out from the molar mass of the structure shown. Like-named read-outs stand apart in the source and are kept apart here. Starred links: 1 amine or outer side, 2 acyl side, 3 side chain; linkers in the order of their positions; H or OH if unused. Positions of bridges follow the written chain, without caps; N, C: chain ends. Residues, ends and D or L forms follow the SMILES beside them. *: point of attachment. C20 diacid = O=C(O)CCCCCCCCCCCCCCCCCCC(=O)*; γGlu = O=C(O)[C@H](CCC(=O)[*:2])N[*:1]; AEEA = NCCOCCOCC(=O)O

Experiments:
[1] = biological target: T1, human amylin receptor (amylin 3(a) receptor: human calcitonin receptor + RAMP-3) (Homo sapiens, UniProt O60896+P30988); assay: Assay (II)a functional CRE-luciferase assay, human amylin receptor; format: cell-based
T1 construct: expressed in transfected cells; host or cells: BHK570
T1 sequence (P30988 25-474): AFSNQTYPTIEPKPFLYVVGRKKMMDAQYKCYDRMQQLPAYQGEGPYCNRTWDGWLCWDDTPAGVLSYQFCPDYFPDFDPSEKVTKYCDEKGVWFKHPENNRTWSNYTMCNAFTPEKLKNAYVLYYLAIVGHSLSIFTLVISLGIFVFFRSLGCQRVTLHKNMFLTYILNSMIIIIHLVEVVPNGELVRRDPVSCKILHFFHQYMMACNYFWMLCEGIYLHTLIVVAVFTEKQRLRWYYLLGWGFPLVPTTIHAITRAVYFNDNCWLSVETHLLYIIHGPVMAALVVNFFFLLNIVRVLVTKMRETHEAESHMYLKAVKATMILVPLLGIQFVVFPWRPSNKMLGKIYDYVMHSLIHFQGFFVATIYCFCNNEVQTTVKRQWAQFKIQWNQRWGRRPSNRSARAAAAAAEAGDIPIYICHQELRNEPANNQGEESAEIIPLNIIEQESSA
T1 sequence (O60896 24-148 partner): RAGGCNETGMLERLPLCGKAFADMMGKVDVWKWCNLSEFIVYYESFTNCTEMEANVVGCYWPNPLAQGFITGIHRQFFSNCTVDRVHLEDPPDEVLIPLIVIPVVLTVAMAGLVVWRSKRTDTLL
Text: 1. Luciferase Assay Outline
Activation of calcitonin and amylin (coexpression of calcitonin receptor and receptor activity modifying proteins (RAMP)) receptors lead to increased intracellular concentrations of cAMP. Consequently, transcription is activated by promoters containing multiple copies of the cAMP response element (CRE). It is thus possible to measure amylin activity by the use of a CRE luciferase reporter gene introduced into BHK cells also expressing calcitonin or amylin receptors.
A BHK570 cell line was stably transfected with the human calcitonin receptor and a CRE-responsive luciferase reporter gene. The cell line was further transfected with RAMP-3, using standard methods. This turns the calcitonin receptor into an amylin 3(a) receptor. Methotrexate, Neomycin, and Hygromycin are selection markers for luciferase, the calcitonin receptor, and RAMP-3, respectively.
To perform activity assays, BHK calcitonin (a) receptor- or amylin 3(a)-receptor/CRE-luc cells were seeded in white 96 well culture plates at a density of about 20.000 cells/well. […] Further, 50 μl/well of standard or sample in assay buffer were added. After 3 hours incubation at 37° C. and 5% CO2, the assay medium with standard or sample were removed and replaced by 100 μl/well PBS. Further, 100 μl/well LucLite™ was added. The plates were sealed and incubated at room temperature for 30 minutes. Finally, luminescence was measured on a TopCounter (Packard) in SPC (single photon counting) mode.

[2] = Assay (IV) determination of solubility; format: physicochemical
Outline: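 Polypeptide in water (~500 nmol/ml stock) was mixed 1:1 with 100 mM buffers from pH 3.0 to 8.0 (glycylglycine pH 3.0–5.0; bistrispropane pH 6.0–8.0). After 18 hours at room temperature, samples were centrifuged and the polypeptide remaining in solution was quantified by HPLC.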

[3] = biological target: T2, human calcitonin receptor (Homo sapiens, UniProt P30988); assay: Assay (II)a functional CRE-luciferase assay, human calcitonin receptor; format: cell-based
T2 construct: expressed in transfected cells; host or cells: BHK570
T2 sequence (P30988 25-474): T1 sequence (P30988 25-474)

[4] = Table 2, BHK amylin 3(a)-receptor/CRE-luc cells
[5] = bistrispropane buffer, pH 6, pH 6.0, read-out: Solubility pH 6.0
[6] = bistrispropane buffer, pH 6.5, pH 6.5, read-out: Solubility pH 6.5
[7] = bistrispropane buffer, pH 7, pH 7.0, 18 hours at room temperature, Table 3, read-out: Solubility pH 7.0
[8] = bistrispropane buffer, pH 7, pH 7.0, read-out: Solubility pH 7.0
[9] = bistrispropane buffer, pH 7.5, pH 7.5, read-out: Solubility pH 7.5
[10] = bistrispropane buffer, pH 8, pH 8.0, read-out: Solubility pH 8.0
[11] = glycylglycine buffer, pH 3, pH 3.0, read-out: Solubility pH 3.0
[12] = glycylglycine buffer, pH 4, pH 4.0, 18 hours at room temperature, Table 2, read-out: Solubility pH 4.0
[13] = glycylglycine buffer, pH 4, pH 4.0, read-out: Solubility pH 4.0
[14] = glycylglycine buffer, pH 5, pH 5.0, read-out: Solubility pH 5.0
[15] = Table 7, human calcitonin (CTa) receptor

Compound	EC50 [1, 4] [nM]	solubility at 18 h [2, 5] [µM]	solubility at 18 h [2, 6] [µM]	solubility at 18 h [2, 7] [µM]	solubility at 18 h [2, 8] [µM]	solubility at 18 h [2, 9] [µM]	solubility at 18 h [2, 10] [µM]	solubility at 18 h [2, 11] [µM]	solubility at 18 h [2, 12] [µM]	solubility at 18 h [2, 13] [µM]	solubility at 18 h [2, 14] [µM]	EC50 [3, 15] [nM]	further results
CC[C@H](C)[C@H](NC(=O)[C@@H]1CCCN1C(=O)CNC(=O)[C@H](Cc1ccccc1)NC(=O)[C@H](CC(N)=O)NC(=O)[C@H](CC(N)=O)NC(=O)[C@H](CO)NC(=O)[C@H](CO)NC(=O)[C@H](Cc1cnc[nH]1)NC(=O)[C@H](Cc1cnc[nH]1)NC(=O)[C@H](CC(C)C)NC(=O)[C@H](Cc1ccccc1)NC(=O)[C@H](CCC(=O)O)NC(=O)[C@H](C)NC(=O)[C@H](CC(C)C)NC(=O)[C@H](CCCNC(=N)N)NC(=O)[C@H](CCC(N)=O)NC(=O)[C@@H](NC(=O)[C@H](C)NC(=O)[C@@H]1CSSC[C@H](NC(=O)CC[C@H](NC(=O)CCCCCCCCCCCCCCCCCCC(=O)O)C(=O)O)C(=O)N[C@@H](CC(N)=O)C(=O)N[C@@H]([C@@H](C)O)C(=O)N[C@@H](C)C(=O)N[C@@H]([C@@H](C)O)C(=O)N1)[C@@H](C)O)C(=O)N[C@@H](CC(C)C)C(=O)N1CCC[C@H]1C(=O)N1CCC[C@H]1C(=O)N[C@H](C(=O)N[C@@H](CC(N)=O)C(=O)N[C@H](C(=O)NCC(=O)N[C@@H](CO)C(=O)N[C@@H](CC(N)=O)C(=O)N[C@H](C(=O)N[C@@H](Cc1ccc(O)cc1)C(N)=O)[C@@H](C)O)C(C)C)[C@@H](C)O [Example 28, N-alpha-[(S)-4-Carboxy-4-(19-carboxynonadecanoylamino)butyryl]-[des1,Glu14,His17]-pramlintide] ({C20 diacid-γGlu}-CNTATCATQRLAEFLHHSSNNFGPILPPTNVGSNTY-NH2; disulfide 1-6)	0.179	> 200	> 200	> 200	> 200	> 200	> 200	> 200	> 200	> 200	> 200	0.259	–
CC[C@H](C)[C@H](NC(=O)[C@@H]1CCCN1C(=O)CNC(=O)[C@H](Cc1ccccc1)NC(=O)[C@H](CC(N)=O)NC(=O)[C@H](CC(N)=O)NC(=O)[C@H](CO)NC(=O)[C@H](CO)NC(=O)[C@H](Cc1cnc[nH]1)NC(=O)[C@H](Cc1cnc[nH]1)NC(=O)[C@H](CC(C)C)NC(=O)[C@H](Cc1ccccc1)NC(=O)[C@H](CCC(=O)O)NC(=O)[C@H](C)NC(=O)[C@H](CC(C)C)NC(=O)[C@H](CCCNC(=N)N)NC(=O)[C@H](CCC(N)=O)NC(=O)[C@@H](NC(=O)[C@H](C)NC(=O)[C@@H]1CSSC[C@H](NC(=O)[C@H](CCC(=O)O)NC(=O)CC[C@H](NC(=O)CCCCCCCCCCCCCCCCCCC(=O)O)C(=O)O)C(=O)N[C@@H](CC(N)=O)C(=O)N[C@@H]([C@@H](C)O)C(=O)N[C@@H](C)C(=O)N[C@@H]([C@@H](C)O)C(=O)N1)[C@@H](C)O)C(=O)N[C@@H](CC(C)C)C(=O)N1CCC[C@H]1C(=O)N1CCC[C@H]1C(=O)N[C@H](C(=O)N[C@@H](CC(N)=O)C(=O)N[C@H](C(=O)NCC(=O)N[C@@H](CO)C(=O)N[C@@H](CC(N)=O)C(=O)N[C@H](C(=O)N[C@@H](Cc1ccc(O)cc1)C(N)=O)[C@@H](C)O)C(C)C)[C@@H](C)O [Example 29, N-alpha-[(S)-4-Carboxy-4-(19-carboxynonadecanoylamino)butyryl]-[Glu1,Glu14,His17]-pramlintide] ({C20 diacid-γGlu}-ECNTATCATQRLAEFLHHSSNNFGPILPPTNVGSNTY-NH2; disulfide 2-7)	0.377	> 200	> 200	> 200	> 200	> 200	> 200	> 200	> 200	> 200	107 (≈ 477 µg/mL)	0.657	–
CC[C@H](C)[C@H](NC(=O)[C@@H]1CCCN1C(=O)CNC(=O)[C@H](Cc1ccccc1)NC(=O)[C@H](CC(N)=O)NC(=O)[C@H](CC(N)=O)NC(=O)[C@H](CO)NC(=O)[C@H](CO)NC(=O)[C@H](Cc1c[nH]cn1)NC(=O)[C@H](Cc1c[nH]cn1)NC(=O)[C@H](CC(C)C)NC(=O)[C@H](Cc1ccccc1)NC(=O)[C@H](CCC(=O)O)NC(=O)[C@H](C)NC(=O)[C@H](CC(C)C)NC(=O)[C@H](CCCNC(=N)N)NC(=O)[C@H](CCC(N)=O)NC(=O)[C@@H](NC(=O)[C@H](C)NC(=O)[C@@H]1CSSC[C@H](NC(=O)COCCOCCNC(=O)COCCOCCNC(=O)CC[C@H](NC(=O)CCCCCCCCCCCCCCCCCCC(=O)O)C(=O)O)C(=O)N[C@@H](CC(N)=O)C(=O)N[C@@H]([C@@H](C)O)C(=O)N[C@@H](C)C(=O)N[C@@H]([C@@H](C)O)C(=O)N1)[C@@H](C)O)C(=O)N[C@@H](CC(C)C)C(=O)N1CCC[C@H]1C(=O)N1CCC[C@H]1C(=O)N[C@H](C(=O)N[C@@H](CC(N)=O)C(=O)N[C@H](C(=O)NCC(=O)N[C@@H](CO)C(=O)N[C@@H](CC(N)=O)C(=O)N[C@H](C(=O)N[C@@H](Cc1ccc(O)cc1)C(N)=O)[C@@H](C)O)C(C)C)[C@@H](C)O [Example 43, N-alpha-[2-(2-{2-[2-(2-{2-[(S)-4-Carboxy-4-(19-carboxyheptadecanoylamino)butyrylamino]ethoxy}ethoxy)acetylamino]ethoxy}ethoxy)acetyl]-[des1,Glu14,His17]-pramlintide] ({C20 diacid-γGlu-AEEA-AEEA}-CNTATCATQRLAEFLHHSSNNFGPILPPTNVGSNTY-NH2; disulfide 1-6)	0.334	–	–	–	–	–	–	–	–	–	–	0.672	EC50 ([1]; Table 3, BHK amylin 3(a)-receptor/CRE-luc cells): 0.334 nM; EC50 ([1]; Table 4): 0.334 nM; EC50 ([1]; Table 6, human amylin receptor): 0.334 nM; EC50 ([1]; Table 7, human amylin receptor): 0.334 nM; EC50 ([1]; Table 11): 0.334 nM; solubility ([2]; pH 3, pH 3.0, read-out: Solubility pH 3.0): > 200 µM; solubility ([2]; pH 4, pH 4.0, 18 hours at room temperature, Table 2, read-out: Solubility pH 4.0): > 200 µM; solubility ([2]; pH 4, pH 4.0, read-out: Solubility pH 4.0): > 200 µM; solubility ([2]; pH 5, pH 5.0, read-out: Solubility pH 5.0): 194 µM (≈ 896 µg/mL); solubility ([2]; pH 6, pH 6.0, read-out: Solubility pH 6.0): 176 µM (≈ 813 µg/mL); solubility ([2]; pH 6.5, pH 6.5, read-out: Solubility pH 6.5): 195 µM (≈ 901 µg/mL); solubility ([2]; pH 7, pH 7.0, 18 hours at room temperature, Table 3, read-out: Solubility pH 7.0): > 200 µM; solubility ([2]; pH 7, pH 7.0, read-out: Solubility pH 7.0): > 200 µM; solubility ([2]; pH 7.5, pH 7.5, read-out: Solubility pH 7.5): > 200 µM; solubility ([2]; pH 8, pH 8.0, read-out: Solubility pH 8.0): > 200 µM; EC50 ([3]; Table 11, read-out: CTa receptor human EC50): 0.672 nM
